Test results taken from US20030144292A1, “Carbocyclic side chain containing, N-substituted metalloprotease inhibitors” (priority 2000, published 2003).

Columns and labels:
Assay type in all cases: in vivo
[1] = test system: human subject with a premetastatic tumor; test: Example G: parenteral suspension injected next to a premetastatic tumor; details: 100 mg/mL suspension, about 2.0 mL injected beside the tumor twice daily, after 30 days
Procedure: A composition for parenteral administration is made comprising:
The above ingredients are mixed, forming a suspension. Approximately 2.0 mL of the suspension is administered, via injection, to a human subject with a premetastatic tumor. The injection site juxtaposes the tumor. This dosage is repeated twice daily, for approximately 30 days.

asthma sufferer = test: Example E: inhalation aerosol for asthma; details: 5.0% w/v aerosol, 0.01 mL sprayed into the mouth while inhaling
[2] = test system: patient having deep corneal abrasion; test: Example C: saline-based eye drop for deep corneal abrasion; details: 5% w/w drop to each eye twice a day
From the text: A saline-based composition for local administration, according to the present invention, is made comprising:
A patient having deep corneal abrasion applies the drop to each eye twice a day.

[3] = test system: patient suffering from chemical burns; test: Example D: topical composition for chemical burns; details: 0.20% w/v topical composition at each dressing change (b.i.d.)
From the text: A topical composition for local administration, according to the present invention, is made comprising:
A patient suffering from chemical burns applies the composition at each dressing change (b.i.d.).

[4] = test system: human subject suffering from osteoarthritis; test: Example B: oral capsule treatment of osteoarthritis; details: capsule containing 70 mg daily for 5 years
Procedure: A capsule for oral administration, according to the present invention, is made comprising:
A human subject weighing 90 kg (198 lbs.), suffering from osteoarthritis, is treated by a method of this invention. Specifically, for 5 years, a capsule containing 70 mg of the compound of Example 3 is administered daily to said subject.

[5] = test system: human subject suffering from rheumatoid arthritis; test: Example A: oral tablet treatment of rheumatoid arthritis; details: tablet with 15 mg compound, three tablets per day orally for 2 years
Procedure: A tablet composition for oral administration, according to the present invention, is made comprising:
A human subject weighing 60 kg (132 lbs), suffering from rheumatoid arthritis, is treated by a method of this invention. Specifically, for 2 years, a regimen of three tablets per day is administered orally to said subject.

## COc1ccc(-c2ccc(S(=O)(=O)N(C)[C@@H](C(=O)O)C3CCC4(CC3)OCCCO4)cc2)cc1 [Example 2, (R)-N-{[4′-methoxy-(1,1′-biphenyl)-4-yl]-sulfonyl}-N-methylamino-(1,5-dioxa-spiro[5.5]undec-9-yl)-acetic Acid]
[1]
  symptoms of the disease: subside

## COc1ccc(-c2ccc(S(=O)(=O)N(C)C(C(=O)O)C3CCC(N4CCCC4=O)CC3)cc2)cc1 (centres unmarked) [Example 19, N-{[4′-Methoxy-(1,1′-biphenyl)-4-yl]-sulfonyl-N-methylamino}-[4-(2-oxopyrrolidin-1N-yl)-cyclohexan-1-yl]-acetic Acid]
Asthma sufferer
  asthma symptoms: diminished

## COc1ccc(-c2ccc(S(=O)(=O)N(C)C(C(=O)O)C3(SC)CCCC4(C3)OCCO4)cc2)cc1 (centres unmarked) [Example 10, (7-methylthio-1,4-Dioxaspiro[4.5]dec-7-yl)-N-{[4′-Methoxy-(1,1′-biphenyl)-4-yl]-sulfonyl}-N-methylamino-acetic Acid]
[2]
  healing of corneal abrasion: speeded
  visual sequelae: no visual sequelae

## COc1ccc(-c2ccc(S(=O)(=O)N(C)C(C(=O)O)C3CCC(N4CCOC4=O)CC3)cc2)cc1 (centres unmarked) [Example 21, N-{[4′-Methoxy-(1,1′-biphenyl)-4-yl]-sulfonyl-N-methylamino}-[4-(oxazolidin-2-one-3N-yl)-cyclohexan-1-yl]-acetic Acid]
[3]
  scarring: substantially diminished

## CN([C@@H](C(=O)O)C1CCC2(CC1)OCCCO2)S(=O)(=O)c1ccc(-c2ccc(Br)cc2)cc1 [Example 3, (R)-N-{[4′-bromo-(1,1′-biphenyl)-4-yl]-sulfonyl}-N-methylamino-(1,5-dioxa-spiro[5.5]undec-9-yl)-acetic Acid]
[4]
  advancement of erosion/fibrillation of the articular cartilage (x-ray, arthroscopy and/or MRI): no further advancement

## COc1ccc(-c2ccc(S(=O)(=O)N(C)C(C(=O)O)C3CCC(O)CC3)cc2)cc1 (centres unmarked) [Example 1, N-{[4′-Methoxy-(1,1′-biphenyl)-4-yl]-sulfonyl-N-methyl-amino}-(4-hydroxycyclohexan-1-yl)-acetic Acid]
[5]
  inflammation at end of treatment period: reduced inflammation
  mobility and pain at end of treatment period: improved mobility without concomitant pain
